Test results as given in patent US8216592B2, “Infection model for developing chemotherapeutic agents” (priority 2007, dated 2012).

Columns and labels:
[1] = test system: enteropathogenic E. coli (EPEC) strain E2348/69; assay: C. elegans infection system: EPEC bacteria recoverable from the nematode gut after treatment; type: in vivo; settings: EPEC E2348/69-infected C. elegans; gentamicin; data not shown
Source text: With continued reference to FIG. 4, there was no significant difference in the number of recoverable ETEC bacteria after treatment with any of the other compounds tested. […] The present invention therefore also includes a C. elegans small animal infection model for studying EPEC. Accordingly, a C. elegans infection system could be used to screen for potentially therapeutic chemical agents against multiple E. coli pathotypes.

ETEC strain H10407 = assay: C. elegans/ETEC infection system: screen of chemotherapeutic agents against colonization of the nematode gut; type: in vivo, E. coli; settings: ETEC H10407-infected C. elegans, 24 hours at 26° C.
Method: (§1) Nematodes were infected with prototypical ETEC H10407 or control MG1655 strains on NGM agar. After 24 hours of infection, 30 nematodes were harvested and placed in 1 mL M9 buffer (black bars), or M9 buffer supplemented with 100 μg/mL gentamicin (white bars), 50 μg/mL kanamycin (cross-hatched bars), 7 μg/mL heparin (checkered bars), or 0.01% mannose (speckled bars), and incubated at 26° C. for 24 hours. Values represent the means of three replicate assays, and error bars indicate 1 SD.
(§2) In one embodiment, a C. elegans/ETEC infection system can be used to screen for chemotherapeutic agents able to disrupt colonization of the nematode gut. In another embodiment, a C. elegans/ETEC infection system may be used to test a range of compounds including, for purposes of example only, the bacteriocidal antibiotic gentamicin, bacteriostatic antibiotic kanamycin, heparin, which may disrupt bacterial adherence, and mannose, which inhibits type I fimbria-mediated adherence to host cells. Age-synchronized L4 nematodes were placed on NGM agar inoculated with either strain H10407 or the control MG1655. Twenty-four hours post-infection, 30 nematodes fed each strain were placed in M9 buffer or M9 buffer supplemented with the desired compounds. After an additional 24 hours of incubation at 26° C., nematodes were harvested, washed to remove exterior bacteria, pulverized and plated on selective LB agar.
After 3 days at 26° C., L4 nematodes were removed from feeding using a platinum wire and placed on rifampin-containing NGM agar plates with pre-grown ETEC and control strains that were incubated at 37° C. overnight. Prior to seeding of C. elegans, NGM and CFA agar plates were shifted to 26° C., the temperature where they remained for the duration of the assay. For the standard plate count assay, nematodes were fed on ETEC and control strains for 24 hours. […]

control strain MG1655 = assay: C. elegans infection system: control strain bacteria recovered from the nematode gut after treatment; type: in vivo, E. coli; settings: MG1655-fed C. elegans; 100 μg/mL gentamicin, 50 μg/mL kanamycin, 7 μg/mL heparin or 0.01% mannose in M9 buffer, 24 hours at 26° C.; P<0.001 for all compounds tested; FIG. 4
Method: as §1
as §2, with “agar. […]” for “agar.”

Substance	reduction in the number of EPEC bacteria recoverable from the nematode gut compared to untreated EPEC-infected nematodes [1]	reduction in the number of ETEC bacteria recoverable from the nematode gut (vs M9 buffer), significance (ETEC strain H10407; 100 μg/mL gentamicin, 50 μg/mL kanamycin, 7 μg/mL heparin or 0.01% mannose in M9 buffer, FIG. 4)	size of the reduction in recoverable ETEC bacteria, M9 buffer versus M9 buffer supplemented with gentamicin (ETEC strain H10407; 100 μg/mL gentamicin)	mean number of bacteria recoverable from the nematode gut after incubation (ETEC strain H10407; M9 buffer supplemented with 100 μg/mL gentamicin, FIG. 4)	reduction in the number of bacteria recovered from the nematode gut, significance (control strain MG1655)
gentamicin	approximately one order of magnitude	significant (P=0.004) reduction	approximately one order of magnitude	1×10^4 CFU per nematode	significant reduction
heparin	–	–	–	–	significant reduction
